# Laboratory results published in PubChem BioAssay AID1919008 (Molecular Pharmacology Branch, DTP, NCI, 2023).
# Test system: DMS-114 complex spheroids with HUVEC/MSC, growth % test/control
# Assay: Anticancer human tumor DMS-114 cell line growth inhibition [AhR];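 further: spheroids exposed to agents for 7 days before readout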;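 on viability, T/C: 100% = DMSO vehicle control wells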
# Details: for IC50: curve of first compound; for viability, T/C: stronger effect = lower value
# In short: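 Spheroids combined tumor cells with HUVEC endothelial cells and human MSCs as stroma. AhR antagonists were paired with standard or investigational drugs, each dosed in half-log steps down from near clinical Cmax, or from 10 microM where Cmax was unknown.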
# [1] = second compound 0.1 µM, first compound 0.0316 µM
# [2] = second compound 0.1 µM, first compound 0.1 µM
# [3] = second compound 0.1 µM, first compound 0.316 µM
# [4] = second compound 0.1 µM, first compound 1 µM
# [5] = second compound 0.1 µM, first compound 3.16 µM
# [6] = second compound 0.1 µM, first compound 10 µM
# [7] = second compound 0.316 µM, first compound 0.0316 µM
# [8] = second compound 0.316 µM, first compound 0.1 µM
# [9] = second compound 0.316 µM, first compound 0.316 µM
# [10] = second compound 0.316 µM, first compound 1 µM
# [11] = second compound 0.316 µM, first compound 3.16 µM
# [12] = second compound 0.316 µM, first compound 10 µM
# [13] = second compound 1 µM, first compound 0.0316 µM
# [14] = second compound 1 µM, first compound 0.1 µM
# [15] = second compound 1 µM, first compound 0.316 µM
# [16] = second compound 1 µM, first compound 1 µM
# [17] = second compound 1 µM, first compound 3.16 µM
# [18] = second compound 1 µM, first compound 10 µM
# [19] = second compound 3.16 µM, first compound 0.0316 µM
# [20] = second compound 3.16 µM, first compound 0.1 µM
# [21] = second compound 3.16 µM, first compound 0.316 µM
# [22] = second compound 3.16 µM, first compound 1 µM
# [23] = second compound 3.16 µM, first compound 3.16 µM
# [24] = second compound 3.16 µM, first compound 10 µM
# [25] = second compound 10 µM, first compound 0.0316 µM
# [26] = second compound 10 µM, first compound 0.1 µM
# [27] = second compound 10 µM, first compound 0.316 µM
# [28] = second compound 10 µM, first compound 1 µM
# [29] = second compound 10 µM, first compound 3.16 µM
# [30] = second compound 10 µM, first compound 10 µM
SMILES,IC50 (second compound 0.1 µM),IC50 (second compound 0.316 µM),IC50 (second compound 1 µM),IC50 (second compound 3.16 µM),IC50 (second compound 10 µM),"viability, T/C [1]","viability, T/C [2]","viability, T/C [3]","viability, T/C [4]","viability, T/C [5]","viability, T/C [6]","viability, T/C [7]","viability, T/C [8]","viability, T/C [9]","viability, T/C [13]","viability, T/C [14]","viability, T/C [19]","viability, T/C [20]","viability, T/C [25]","viability, T/C [26]",also measured
CC(C)c1c(-c2ccccc2)nc2c(C#N)c[nH]n2c1=O + Cc1ccccc1N=Nc1ccc(NC(=O)c2ccnn2C)c(C)c1,> 10000 nM,> 10000 nM,> 10000 nM,> 10000 nM,> 10000 nM,104%,108%,105%,103%,113%,95.9%,95.5%,97.7%,98.9%,95.3%,96.8%,96%,95.8%,98.3%,96.9%,"viability, T/C [10]: 94.3%; viability, T/C [11]: 95.9%; viability, T/C [12]: 101%; viability, T/C [15]: 102%; viability, T/C [16]: 103%; viability, T/C [17]: 95.3%; viability, T/C [18]: 99.2%; viability, T/C [21]: 93%; viability, T/C [22]: 96.3%; viability, T/C [23]: 107%; viability, T/C [24]: 102%; viability, T/C [27]: 95.6%; viability, T/C [28]: 90.5%; viability, T/C [29]: 94.7%; viability, T/C [30]: 88.8%"
CC[C@@]1(O)C(=O)OCc2c1cc1n(c2=O)Cc2cc3c(CN(C)C)c(O)ccc3nc2-1 + Cc1cncc(-c2nc(NCCc3c[nH]c4ccccc34)c3ncn(C(C)C)c3n2)c1,23.6 nM,23.2 nM,25.9 nM,21.9 nM,< 0.316 nM,41.1%,16.7%,,,,,37.8%,17%,,42.1%,19.5%,39.8%,17.8%,16.7%,9.82%,"viability, T/C (second compound 0.1 µM, first compound 0.000316 µM): 93.4%; viability, T/C (second compound 0.1 µM, first compound 0.001 µM): 99.2%; viability, T/C (second compound 0.1 µM, first compound 0.00316 µM): 85.8%; viability, T/C (second compound 0.1 µM, first compound 0.01 µM): 75.6%; viability, T/C (second compound 0.316 µM, first compound 0.000316 µM): 93.4%; viability, T/C (second compound 0.316 µM, first compound 0.001 µM): 101%; viability, T/C (second compound 0.316 µM, first compound 0.00316 µM): 83.8%; viability, T/C (second compound 0.316 µM, first compound 0.01 µM): 83.2%; viability, T/C (second compound 1 µM, first compound 0.000316 µM): 97.3%; viability, T/C (second compound 1 µM, first compound 0.001 µM): 112%; viability, T/C (second compound 1 µM, first compound 0.00316 µM): 94.5%; viability, T/C (second compound 1 µM, first compound 0.01 µM): 86%; viability, T/C (second compound 3.16 µM, first compound 0.000316 µM): 99.7%; viability, T/C (second compound 3.16 µM, first compound 0.001 µM): 94%; viability, T/C (second compound 3.16 µM, first compound 0.00316 µM): 96.1%; viability, T/C (second compound 3.16 µM, first compound 0.01 µM): 71.9%; viability, T/C (second compound 10 µM, first compound 0.000316 µM): 40.1%; viability, T/C (second compound 10 µM, first compound 0.001 µM): 43.7%; viability, T/C (second compound 10 µM, first compound 0.00316 µM): 37.1%; viability, T/C (second compound 10 µM, first compound 0.01 µM): 27.2%"
COc1cc(C2c3cc4c(cc3C(OC3OC5COC(C)OC5C(O)C3O)C3COC(=O)C23)OCO4)cc(OC)c1O (stereo not given) + Cc1cncc(-c2nc(NCCc3c[nH]c4ccccc34)c3ncn(C(C)C)c3n2)c1,448 nM,351 nM,390 nM,298 nM,< 31.6 nM,102%,97.8%,58.1%,27%,16.5%,8.1%,96.4%,96.3%,50.4%,92.7%,94.6%,87.1%,93.3%,42.3%,41.6%,"viability, T/C [10]: 24.9%; viability, T/C [11]: 16.3%; viability, T/C [12]: 9.46%; viability, T/C [15]: 54.6%; viability, T/C [16]: 23.5%; viability, T/C [17]: 17.6%; viability, T/C [18]: 9.48%; viability, T/C [21]: 47.5%; viability, T/C [22]: 21.9%; viability, T/C [23]: 15.7%; viability, T/C [24]: 8.67%; viability, T/C [27]: 21.7%; viability, T/C [28]: 10.2%; viability, T/C [29]: 8.09%; viability, T/C [30]: 5.18%"
